From ChEMBL document CHEMBL1201862, “PubChem BioAssay data set” (2004)
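48-hour exposure; five concentrations; linearly interpolated endpoints. GI50: concentration for 50% inhibition of growth.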 Active and inactive are the calls of the source. Rule as the data show it: active = GI50 up to about 1.1 µM and inactive = higher.

Columns and labels:
Assay in all cases: inhibition of tumour cell growth, NCI panel, 48 h
[1] = system: HOP-62
[2] = system: T47D
[3] = system: SK-MEL-5
[4] = system: MDA-N
[5] = system: SK-OV-3
[6] = system: MDA-MB-231
[7] = system: SF-539
[8] = system: OVCAR-5
[9] = system: U-251
[10] = system: SNB-75
[11] = system: SF-268
[12] = system: HCT-116
[13] = system: RXF 393
[14] = system: IGROV-1
[15] = system: OVCAR-8
[16] = system: SNB-19
[17] = system: CCRF-CEM
[18] = system: NCI-H23
[19] = system: SW-620

O=C1/C(=C/c2ccc([N+](=O)[O-])cc2)C(=O)N(c2ccccc2)C1c1ccccc1 (centres undefined)
GI50 [1]: > 10 µM (inactive)
GI50 [2]: > 10 µM (inactive)
GI50 [3]: > 10 µM (inactive)
GI50 [4]: > 10 µM (inactive)
GI50 [5]: > 10 µM (inactive)
GI50 [6]: > 10 µM (inactive)
GI50 [7]: > 10 µM (inactive)
GI50 [8]: > 10 µM (inactive)
GI50 [9]: > 10 µM (inactive)
GI50 [10]: > 10 µM (inactive)
GI50 [11]: > 10 µM (inactive)
GI50 [12]: > 10 µM (inactive)
GI50 [13]: > 10 µM (inactive)
GI50 [14]: > 10 µM (inactive)
GI50 [15]: > 10 µM (inactive)
GI50 [16]: > 10 µM (inactive)
GI50 [17]: > 10 µM (inactive)
GI50 [18]: > 10 µM (inactive)
GI50 [19]: > 10 µM (inactive)

C[n+]1cccc2ccc3cccnc3c21
GI50 [1]: 19.5 µM (inactive)
GI50 [2]: 21 µM (inactive)
GI50 [3]: 16.2 µM (inactive)
GI50 [4]: 67.5 µM (inactive)
GI50 [5]: 47.6 µM (inactive)
GI50 [6]: 83.6 µM (inactive)
GI50 [7]: 48 µM (inactive)
GI50 [8]: 82 µM (inactive)
GI50 [9]: 18.5 µM (inactive)
GI50 [10]: 23.6 µM (inactive)
GI50 [11]: 17.6 µM (inactive)
GI50 [12]: 19.4 µM (inactive)
GI50 [13]: 46.3 µM (inactive)
GI50 [14]: 76 µM (inactive)
GI50 [15]: 12.3 µM (inactive)
GI50 [16]: 30.8 µM (inactive)
GI50 [17]: > 100 µM (inactive)
GI50 [18]: 18.2 µM (inactive)
GI50 [19]: 32.4 µM (inactive)

CCCN(C(=O)c1ccccc1)C(C#N)c1ccc(C(C#N)N(CCC)C(=O)c2ccccc2)cc1 (centres undefined)
GI50 [1]: 27.1 µM (inactive)
GI50 [2]: 11.2 µM (inactive)
GI50 [3]: 92.5 µM (inactive)
GI50 [4]: > 100 µM (inactive)
GI50 [5]: 22 µM (inactive)
GI50 [6]: 66.1 µM (inactive)
GI50 [7]: 28.5 µM (inactive)
GI50 [8]: 93.3 µM (inactive)
GI50 [9]: 40 µM (inactive)
GI50 [10]: 18.4 µM (inactive)
GI50 [11]: 85.9 µM (inactive)
GI50 [12]: > 100 µM (inactive)
GI50 [13]: 35.6 µM (inactive)
GI50 [14]: 32.4 µM (inactive)
GI50 [15]: 55.3 µM (inactive)
GI50 [16]: 26.1 µM (inactive)
GI50 [17]: > 100 µM (inactive)
GI50 [18]: > 100 µM (inactive)
GI50 [19]: > 100 µM (inactive)

CCO/N=C\c1ccc2oc(-c3ccccc3)cc(=O)c2c1
GI50 [1]: 0.46 µM (active)
GI50 [2]: 27.5 µM (inactive)
GI50 [3]: 0.146 µM (active)
GI50 [4]: 0.0143 µM (active)
GI50 [5]: 0.474 µM (active)
GI50 [6]: 0.557 µM (active)
GI50 [7]: 0.168 µM (active)
GI50 [8]: 2.56 µM (inactive)
GI50 [9]: 0.628 µM (active)
GI50 [10]: 0.219 µM (active)
GI50 [11]: 0.74 µM (active)
GI50 [12]: 0.181 µM (active)
GI50 [13]: 0.261 µM (active)
GI50 [14]: 0.24 µM (active)
GI50 [15]: 0.465 µM (active)
GI50 [16]: 0.48 µM (active)
GI50 [17]: 0.228 µM (active)
GI50 [18]: 0.476 µM (active)
GI50 [19]: 0.129 µM (active)

Nc1nc(=O)n(C2OC(CO)C(O)C2O)c2ncc(-c3ccc(-c4ccccc4)cc3)nc12 (centres undefined)
GI50 [1]: 60 µM (inactive)
GI50 [2]: > 100 µM (inactive)
GI50 [3]: > 100 µM (inactive)
GI50 [4]: > 100 µM (inactive)
GI50 [5]: > 100 µM (inactive)
GI50 [6]: 21 µM (inactive)
GI50 [7]: > 100 µM (inactive)
GI50 [8]: > 100 µM (inactive)
GI50 [9]: 31.3 µM (inactive)
GI50 [10]: 28.4 µM (inactive)
GI50 [11]: > 100 µM (inactive)
GI50 [12]: > 100 µM (inactive)
GI50 [13]: > 100 µM (inactive)
GI50 [14]: > 100 µM (inactive)
GI50 [15]: > 100 µM (inactive)
GI50 [16]: 82.2 µM (inactive)
GI50 [17]: 9.62 µM (inactive)
GI50 [18]: > 100 µM (inactive)
GI50 [19]: > 100 µM (inactive)

Cc1nc(Nc2ccccc2Cl)sc1C(=O)CC(=O)C(=O)Nc1c(Cl)cccc1Cl
GI50 [1]: 22.8 µM (inactive)
GI50 [2]: 22.8 µM (inactive)
GI50 [3]: 31.7 µM (inactive)
GI50 [4]: 40 µM (inactive)
GI50 [5]: 29.1 µM (inactive)
GI50 [6]: 13.6 µM (inactive)
GI50 [7]: 26.9 µM (inactive)
GI50 [8]: 24.9 µM (inactive)
GI50 [9]: 24.9 µM (inactive)
GI50 [10]: 24.4 µM (inactive)
GI50 [11]: 35.6 µM (inactive)
GI50 [12]: 18.8 µM (inactive)
GI50 [13]: 23.4 µM (inactive)
GI50 [14]: 15.8 µM (inactive)
GI50 [15]: 29.4 µM (inactive)
GI50 [16]: 63.8 µM (inactive)
GI50 [17]: 28.4 µM (inactive)
GI50 [18]: 50.1 µM (inactive)
GI50 [19]: 26.5 µM (inactive)

OC1COC2CC(Nc3ccccn3)OC12 (centres undefined)
GI50 [1]: > 100 µM (inactive)
GI50 [2]: > 100 µM (inactive)
GI50 [3]: > 100 µM (inactive)
GI50 [4]: > 100 µM (inactive)
GI50 [5]: > 100 µM (inactive)
GI50 [6]: > 100 µM (inactive)
GI50 [7]: > 100 µM (inactive)
GI50 [8]: > 100 µM (inactive)
GI50 [9]: > 100 µM (inactive)
GI50 [10]: > 100 µM (inactive)
GI50 [11]: > 100 µM (inactive)
GI50 [12]: > 100 µM (inactive)
GI50 [13]: > 100 µM (inactive)
GI50 [14]: > 100 µM (inactive)
GI50 [15]: > 100 µM (inactive)
GI50 [16]: > 100 µM (inactive)
GI50 [17]: > 100 µM (inactive)
GI50 [18]: > 100 µM (inactive)
GI50 [19]: > 100 µM (inactive)

O=C(/C(=C/c1cccs1)c1ccccc1)c1ccccc1
GI50 [1]: 7.21 µM (inactive)
GI50 [2]: > 100 µM (inactive)
GI50 [3]: > 100 µM (inactive)
GI50 [4]: > 100 µM (inactive)
GI50 [5]: > 100 µM (inactive)
GI50 [6]: 23.4 µM (inactive)
GI50 [7]: 17.5 µM (inactive)
GI50 [8]: > 100 µM (inactive)
GI50 [9]: 77.1 µM (inactive)
GI50 [10]: 37.7 µM (inactive)
GI50 [11]: > 100 µM (inactive)
GI50 [12]: > 100 µM (inactive)
GI50 [13]: 4.99 µM (inactive)
GI50 [14]: > 100 µM (inactive)
GI50 [15]: > 100 µM (inactive)
GI50 [16]: 30.5 µM (inactive)
GI50 [17]: > 100 µM (inactive)
GI50 [18]: 76.6 µM (inactive)
GI50 [19]: > 100 µM (inactive)

CN(C)CCCn1nc(N)c2nc3cc(Cl)ccc3nc21
GI50 [1]: 55.3 µM (inactive)
GI50 [2]: 92.3 µM (inactive)
GI50 [3]: 20 µM (inactive)
GI50 [4]: 52.7 µM (inactive)
GI50 [5]: > 100 µM (inactive)
GI50 [6]: 58.3 µM (inactive)
GI50 [7]: 38.2 µM (inactive)
GI50 [8]: 40.4 µM (inactive)
GI50 [9]: 44.8 µM (inactive)
GI50 [10]: 67.8 µM (inactive)
GI50 [11]: 58.1 µM (inactive)
GI50 [12]: 30.3 µM (inactive)
GI50 [13]: 30.6 µM (inactive)
GI50 [14]: 22.9 µM (inactive)
GI50 [15]: 40.2 µM (inactive)
GI50 [16]: 65.3 µM (inactive)
GI50 [17]: 31 µM (inactive)
GI50 [18]: 81.8 µM (inactive)
GI50 [19]: 36.2 µM (inactive)

COc1cc2c(cc1OC)C(=O)/C(=C/c1cc(C)cc(C)c1)C2
GI50 [1]: 0.127 µM (active)
GI50 [2]: 0.883 µM (active)
GI50 [3]: 0.0239 µM (active)
GI50 [4]: < 0.0156 µM (active)
GI50 [5]: 0.308 µM (active)
GI50 [6]: 0.143 µM (active)
GI50 [7]: 0.0871 µM (active)
GI50 [8]: 1.09 µM (active)
GI50 [9]: 0.122 µM (active)
GI50 [10]: 0.211 µM (active)
GI50 [11]: 12.9 µM (inactive)
GI50 [12]: 0.0445 µM (active)
GI50 [13]: 0.0736 µM (active)
GI50 [14]: 0.0908 µM (active)
GI50 [15]: 0.175 µM (active)
GI50 [16]: 1.1 µM (active)
GI50 [17]: 0.0514 µM (active)
GI50 [18]: 0.313 µM (active)
GI50 [19]: 0.0394 µM (active)

COc1ccc2c(c1)/C(=C\c1c(Cl)n(-c3ccccc3)c3ccccc13)C(=O)N2
GI50 [1]: 12.2 µM (inactive)
GI50 [2]: 5.94 µM (inactive)
GI50 [3]: 4.34 µM (inactive)
GI50 [4]: 1.74 µM (inactive)
GI50 [5]: 7.36 µM (inactive)
GI50 [6]: 13.4 µM (inactive)
GI50 [7]: 2.98 µM (inactive)
GI50 [8]: 12.4 µM (inactive)
GI50 [9]: 4.19 µM (inactive)
GI50 [10]: 6.59 µM (inactive)
GI50 [11]: 2.85 µM (inactive)
GI50 [12]: 2.99 µM (inactive)
GI50 [13]: 2.45 µM (inactive)
GI50 [14]: 4.12 µM (inactive)
GI50 [15]: 5.77 µM (inactive)
GI50 [16]: 3.67 µM (inactive)
GI50 [17]: 3.85 µM (inactive)
GI50 [18]: 6.01 µM (inactive)
GI50 [19]: 4.75 µM (inactive)
